In ChEMBL document CHEMBL3992552, “Mechanisms of action and structure-activity relationships of cytotoxic flavokawain derivatives” (Bioorg Med Chem, 2017):
Activity calls are given as the source filed them. No cut-off for these calls is given here.

Tests used:
HCT-116 [1] = experiment: Induction of apoptosis in human HCT116 cells harboring wild-type p53 assessed as upregulation of cyclinB1 measured after 48 hrs by Hoechst staining based assay; assay type: functional, cell-based
MDA-MB-231 [2] = experiment: Induction of apoptosis in human MDA-MB-231 cells harboring p53 mutant assessed as upregulation of cyclinB1 after 18 hrs by Hoechst staining based assay; assay type: functional, cell-based
Huh-7 [3] = experiment: Cytotoxicity against human HuH7 cells assessed as cell viability after 48 hrs by Hoechst 33342 staining based assay; assay type: functional; conditions: Huh-7, 48 h
Huh-7 [4] = experiment: Cell cycle arrest in human HuH7 cells assessed as accumulation at S phase at 25 uM measured after 48 hrs by Hoechst/BrdU staining based fluorescence assay (reference value: 44%); assay type: functional
NCI-H727 [5] = experiment: Cell cycle arrest in human NCI-H727 cells harboring p53 mutant assessed as mitotic index at 10 uM measured after 48 hrs by Hoechst staining based fluorescence assay (reference value: 1.1); assay type: functional
NCI-H727 [6] = experiment: Cell cycle arrest in human NCI-H727 cells harboring p53 mutant assessed as mitotic index at 25 uM measured after 48 hrs by Hoechst staining based fluorescence assay (reference value: 1.1); assay type: functional
Caco-2 [7] = experiment: Cytotoxicity against human Caco2 cells assessed as cell viability after 48 hrs by Hoechst 33342 staining based assay; assay type: functional; conditions: Caco-2, 48 h
RL = experiment: Cytotoxicity against human RL assessed as cell viability after 48 hrs by Hoechst 33342 staining based assay; assay type: functional
HCT-116 [8] = experiment: Cell cycle arrest in human HCT116 cells harboring wild-type p53 assessed as accumulation at S phase at 10 uM measured after 48 hrs by Hoechst/BrdU staining based fluorescence assay (reference value: 68.4%); assay type: functional
[9] = Selectivity index, ratio of IC50 for human fibroblasts to IC50 for human PC3 cells
HCT-116 [10] = experiment: Induction of apoptosis in human HCT116 cells harboring wild-type p53 assessed as increase in early apoptosis at 2 times IC50 after 48 hrs by YoPro/propidium iodide/Hoechst staining based assay; assay type: functional, cell-based
HCT-116 [11] = experiment: Cell cycle arrest in human HCT116 cells harboring wild-type p53 assessed as accumulation at S phase at 25 uM measured after 48 hrs by Hoechst/BrdU staining based fluorescence assay (reference value: 68.4%); assay type: functional
[12] = Selectivity index, ratio of IC50 for human fibroblasts to IC50 for human Caco2 cells
Huh-7 [13] = experiment: Cell cycle arrest in human HuH7 cells assessed as mitotic index at 25 uM measured after 48 hrs by Hoechst staining based fluorescence assay (reference value: 2.2); assay type: functional
HCT-116 [14] = experiment: Cell cycle arrest in human HCT116 cells harboring wild-type p53 assessed as mitotic index at 10 uM measured after 48 hrs by Hoechst staining based fluorescence assay (reference value: 2.3); assay type: functional
PC-3 [15] = experiment: Cytotoxicity against human PC3 cells assessed as cell survival at 50 uM after 48 hrs by Hoechst 33342 staining based assay relative to control; assay type: functional; conditions: PC-3, 48 h, read-out: Survival
MDA-MB-231 [16] = experiment: Cell cycle arrest in human MDA-MB-231 cells assessed as accumulation at M phase by Hoechst staining based fluorescence assay; assay type: functional
HaCaT [17] = experiment: Cytotoxicity against human HaCaT cells assessed as cell viability after 48 hrs by Hoechst 33342 staining based assay; assay type: functional
MCF7 [18] = experiment: Cytotoxicity against human MCF7 assessed as cell viability after 48 hrs by Hoechst 33342 staining based assay; assay type: functional; conditions: MCF7, 48 h
NCI-H727 [19] = experiment: Cell cycle arrest in human NCI-H727 cells harboring p53 mutant assessed as accumulation at S phase at 10 uM measured after 48 hrs by Hoechst/BrdU staining based fluorescence assay (reference value: 40.3%); assay type: functional
PC-3 [20] = experiment: Induction of apoptosis in human PC3 cells harboring p53 mutant assessed as upregulation of cyclinB1 after 48 hrs by Hoechst staining based assay; assay type: functional, cell-based
Caco-2 [21] = experiment: Cell cycle arrest in human Caco2 cells assessed as accumulation at M phase by Hoechst staining based fluorescence assay; assay type: functional
MDA-MB-231 [22] = experiment: Cell cycle arrest in human MDA-MB-231 cells harboring p53 mutant assessed as accumulation at S phase at 10 uM measured after 48 hrs by Hoechst/BrdU staining based fluorescence assay (reference value: 42.2%); assay type: functional
Caco-2 [23] = experiment: Cytotoxicity against human Caco2 cells assessed as cell survival at 50 uM after 48 hrs by Hoechst 33342 staining based assay relative to control; assay type: functional; conditions: Caco-2, 48 h, read-out: Survival
NCI-H727 [24] = experiment: Cell cycle arrest in human NCI-H727 cells harboring p53 mutant assessed as accumulation at S phase at 25 uM measured after 48 hrs by Hoechst/BrdU staining based fluorescence assay (reference value: 40.3%); assay type: functional
PC-3 [25] = experiment: Induction of apoptosis in human PC3 cells harboring p53 mutant assessed as increase in late apoptosis at 2 times IC50 after 48 hrs by YoPro/propidium iodide/Hoechst staining based assay; assay type: functional, cell-based
MDA-MB-231 [26] = experiment: Cytotoxicity against human MDA-MB-231 cells assessed as cell survival at 50 uM after 48 hrs by Hoechst 33342 staining based assay relative to control; assay type: functional; conditions: MDA-MB-231, 48 h, read-out: Survival
MDA-MB-231 [27] = experiment: Cytotoxicity against human MDA-MB-231 cells assessed as cell viability after 48 hrs by Hoechst 33342 staining based assay; assay type: functional; conditions: MDA-MB-231, 48 h
Caco-2 [28] = experiment: Cell cycle arrest in human Caco2 cells assessed as mitotic index at 25 uM measured after 48 hrs by Hoechst staining based fluorescence assay (reference value: 3.6); assay type: functional
MDA-MB-231 [29] = experiment: Induction of apoptosis in human MDA-MB-231 cells harboring p53 mutant assessed as increase in late apoptosis at 2 times IC50 after 24 hrs by YoPro/propidium iodide/Hoechst staining based assay; assay type: functional, cell-based
PC-3 [30] = experiment: Induction of apoptosis in human PC3 cells harboring p53 mutant assessed as increase in early apoptosis at 2 times IC50 after 48 hrs by YoPro/propidium iodide/Hoechst staining based assay; assay type: functional, cell-based
Fibroblast = experiment: Cytotoxicity against human fibroblasts assessed as cell viability after 48 hrs by Hoechst 33342 staining based assay
PC-3 [31] = experiment: Cell cycle arrest in human PC3 cells harboring p53 mutant assessed as mitotic index at 25 uM measured after 48 hrs by Hoechst staining based fluorescence assay (reference value: 2.5); assay type: functional
HaCaT [32] = experiment: Cell cycle arrest in human HaCaT cells assessed as accumulation at M phase by Hoechst staining based fluorescence assay; assay type: functional
MCF7 [33] = experiment: Induction of apoptosis in human MCF7 cells harboring wild-type p53 assessed as increase in early apoptosis at 2 times IC50 after 24 hrs by YoPro/propidium iodide/Hoechst staining based assay; assay type: functional, cell-based
[34] = Selectivity index, ratio of IC50 for human fibroblasts to IC50 for human MCF7 cells
PC-3 [35] = experiment: Cell cycle arrest in human PC3 cells harboring p53 mutant assessed as accumulation at S phase at 10 uM measured after 48 hrs by Hoechst/BrdU staining based fluorescence assay (reference value: 40.8%); assay type: functional
[36] = Cytotoxicity against human fibroblasts assessed as cell survival at 50 uM after 48 hrs by Hoechst 33342 staining based assay relative to control; parameters: species or system Fibroblast; conditions: read-out: Survival

Row | SMILES | Activity (HCT-116 [1]) | Activity (MDA-MB-231 [2]) | IC50 (Huh-7 [3]) [µM] | Activity (Huh-7 [4]) [%] | Activity_index (NCI-H727 [5]) | Activity_index (NCI-H727 [6]) | IC50 (Caco-2 [7]) [µM] | IC50 (RL) [µM] | Activity (HCT-116 [8]) [%] | Ratio IC50 [9] | Activity (HCT-116 [10]) | Activity (HCT-116 [11]) [%] | Ratio IC50 [12] | Activity_index (Huh-7 [13]) | Activity_index (HCT-116 [14]) | viability at 50 µM (PC-3 [15]) [%] | Activity (MDA-MB-231 [16]) | IC50 (HaCaT [17]) [µM] | IC50 (MCF7 [18]) [µM] | Activity (NCI-H727 [19]) [%] | other results
1 | COc1cc(OC)c(C(=O)/C=C/c2ccc(Br)cc2)c(OC)c1 | Active | Active | 13.9 | 0.2 | 1 | 0.7 | 6.8 | 8.3 | 68 | >7 | Active | 68 | >7.4 | 0.1 | 2.8 | 10 | Active | 9 | 9.5 | 39 | Activity (PC-3 [20]): Active; Activity (Caco-2 [21]): Active; Activity (MDA-MB-231 [22]): 42%; viability at 50 µM (Caco-2 [23]): 0%; Activity (NCI-H727 [24]): 6%; Activity (PC-3 [25]): Active; viability at 50 µM (MDA-MB-231 [26]): 6%; IC50 (MDA-MB-231 [27]): 11.1 µM; Activity_index (Caco-2 [28]): 1.4; Activity (MDA-MB-231 [29]): Active; Activity (PC-3 [30]): Active; IC50 (Fibroblast): > 20 µM; Activity_index (PC-3 [31]): 0; Activity (HaCaT [32]): Active; Activity (MCF7 [33]): Active; Ratio IC50 [34]: >5.3; Activity (PC-3 [35]): 35%; viability at 48 h, 50 µM [36]: 57%
2 | COc1cccc(/C=C/C(=O)c2c(OC)cc(OC)cc2OC)c1 | Active | Active | 8.9 | 0.3 | 1.7 | 0.1 | 3.9 | 5.9 | 20 | >16.1 | Active | 0.6 | >12.8 | 1 | 4.5 | 19 | Active | 5.3 | 9.4 | 37 | Activity (PC-3 [20]): Active; Activity (Caco-2 [21]): Active; Activity (MDA-MB-231 [22]): 43%; viability at 50 µM (Caco-2 [23]): 2%; Activity (NCI-H727 [24]): 5.1%; Activity (PC-3 [25]): Active; viability at 50 µM (MDA-MB-231 [26]): 4%; IC50 (MDA-MB-231 [27]): 8.7 µM; Activity_index (Caco-2 [28]): 4.8; Activity (MDA-MB-231 [29]): Active; Activity (PC-3 [30]): Active; IC50 (Fibroblast): > 20 µM; Activity_index (PC-3 [31]): 0.3; Activity (HaCaT [32]): Active; Activity (MCF7 [33]): Active; Ratio IC50 [34]: >5.3; Activity (PC-3 [35]): 23%; viability at 48 h, 50 µM [36]: 66%
3 | COc1cc(OC)c(C(=O)/C=C/c2ccccc2)c(OC)c1 | Active | Active | 15.5 | 0.7 | 1.3 | 0.2 | 5.8 | 6.9 | 19 | >9.8 | Active | 2.6 | >8.6 | 0.6 | 2 | 29 | Active | 7.2 | 9.4 | 34 | Activity (PC-3 [20]): Active; Activity (Caco-2 [21]): Active; Activity (MDA-MB-231 [22]): 37%; viability at 50 µM (Caco-2 [23]): 5%; Activity (NCI-H727 [24]): 4.5%; Activity (PC-3 [25]): Active; viability at 50 µM (MDA-MB-231 [26]): 13%; IC50 (MDA-MB-231 [27]): 12.9 µM; Activity_index (Caco-2 [28]): 13; Activity (MDA-MB-231 [29]): Active; Activity (PC-3 [30]): Active; IC50 (Fibroblast): > 20 µM; Activity_index (PC-3 [31]): 1.2; Activity (HaCaT [32]): Active; Activity (MCF7 [33]): Active; Ratio IC50 [34]: >5.3; Activity (PC-3 [35]): 24%; viability at 48 h, 50 µM [36]: 74%
